This test concerns corn plants. As to the kind of experiment: clethodim application to corn plants with tank-mix adjuvants, % inhibition versus untreated control plants. The class given is in vivo. The note with it: clethodim 1 fluid ounce/acre without tank-mix adjuvants, 7 days following treatment. The text has this: Various surfactants are used as adjuvants for agrochemicals to enhance deposition and penetration through plant surfaces. Two commercial tank-mix adjuvant systems that may be used for comparison are PRIME OIL® and SUPERB® HC (available from Winfield Solutions, LLC of Shoreview, Minn.), which are high surfactant oil concentrates. Representative studied were based on delivery of clethodim at 1 fluid ounce/acre, a commercial herbicide that inhibits growth of certain plants. A measure of effectiveness was the % inhibition (with 0% being no inhibition) compared to untreated control plants. Photographs (a)-(e) of FIG. 11 provide images of corn plants (corn being a common contaminant crop in soybean fields) treated with different formulations 7 days after treatment. Comparatively good results are obtained with clethodim and KLPEG900. Lignin adjuvant activity appeared to be higher at 0.05% v/v that 0.1% v/v.
FIG. 12 illustrates a graph wherein % inhibition is plotted for the different formulations 7 days following treatment.

In general, % inhibition refers to the share of the control response that was lost under treatment. As to `CCSC(C)CC1CC(=O)C(/C(CC)=N/OC/C=C/Cl)=C(O)C1` (stereo not shown) [Clethodim, clethodim], the “% inhibition” value came to 54.4%.
